The test system of data set [1] is Staphylococcus aureus ATCC 6538P. The data set can be described thus: Electrophoresis followed by bioactivity on Staphylococcus aureus assay plate. Format: cell-based. The following applies: after incubation of 890A10 with cell sonicate and electrophoresis at pH 7.1; 37° C., 18 hours. The protocol: The flasks are shaken at 28° C. on a 220 rpm (2" throw) shaker for 4 days. A 30 ml. portion from each flask is centrifuged for 15 minutes at 8,000 rpm. The supernatant portion is removed, leaving only enough to form a thick suspension of cells and media solids. Half of the suspension is subjected to ultrasonic disruption using a Branson Instrument Model LS-75 Sonifier with a 1/2 inch probe. The input power is set at position No. 4, and four successive 15 second cycles of irradiation are used, while chilling the suspension in ice water during and between disruption. To test for the presence of N-acetyl-890A10 amidohydrolase activity, a 10-μl. portion of the sonicate is mixed with 25 μl. of an 890A10 solution containing 500 μg. per ml. Controls containing antibiotic and buffer alone; and sonicated cells and buffer without antibiotic are also run. After incubation overnight at 28° C., 10 μl. quantities are applied to Schleicher and Schuell No. 2043-B paper. Using 0.03 M potassium phosphate buffer pH 7.1, a voltage gradient of 50 volts/cm. is applied for 30 minutes. The paper is placed on a Staphylococcus aureus ATCC 6538P plate and incubated at 37° C. for 18 hours. […]
The flask is shaken at 28° C. on a 220 rpm (2-inch throw) shaker for four days. […] After incubation overnight at 28° C., 10-μl. quantities are applied to Schleicher & Schuell No. 2043-B paper. […]

Data set [2] can be described thus: Stability under acidic conditions in aqueous solution. The format is physicochemical.
The test system of data set [3] is Vibrio percolans ATCC 8461. Kind of data set: Assay for 890 Assay Units, agar plate disc-diffusion method, cephaloridine as standard. Format: cell-based. To be noted: 25 mm. zone of inhibition on a 5 ml. plate. As to the method:
II. Assay Procedure for Determining "890 Assay Units" A conventional agar plate disc-diffusion method is employed using Vibrio percolans ATCC 8461 as tester organism. Cephaloridine is employed as a standard. Plates containing Vibrio percolans ATCC 8461 are prepared as follows. A culture of Vibrio percolans ATCC 8461 is incubated in nutrient broth-yeast extract overnight on a rotary shaker at 28° C. and then diluted to a density of 60% transmittance at 660 nm. A 33.2 ml. portion of this diluted culture is added to 1 liter of a medium composed of nutrient agar plus 0.2% yeast extract maintained at 46° C. The inoculated agar-containing medium is poured into 100×15 mm. plastic-petri dishes, 10 ml. per dish, chilled, and maintained at 2°-4° C. for up to 5 days before use. The concentration of cephaloridine which is equivalent to 1 unit/ml. of 890A1 is determined by assay on plates prepared as above, but containing 5 ml. of inoculated medium per plate, as follows. Four concentrations of cephaloridine constitute the standard--3.12, 6.25, 12.5 and 25 mcg per ml. with the 12.5 mcg per ml. as a reference solution. The zone diameters on a 5 ml. plate for the standard are as follows: A unit is defined as the amount of antibiotic per ml. producing a 25 mm. zone of inhibition on a 5 ml. plate as described in section I above. […]

The subject of data set [4] is gram-positive and gram-negative bacteria. Kind of data set: Antibacterial activity (general statement). Format: cell-based. The following applies: no test values printed.

As to `CC(=O)NCCSC1=C(C(=O)O)N2C(=O)C(C(C)OS(=O)(=O)O)C2C1` (centres unmarked) [890A10], the “bioactive spot on Staphylococcus aureus plate” value in data set [1] was “bioactive”. Further, the “stability under acidic conditions” value in data set [2] is reported as “unstable”.

In the case of `O=C(Cc1cccs1)N[C@@H]1C(=O)N2C(C(=O)[O-])=C(C[n+]3ccccc3)CS[C@H]12` [cephaloridine], the “concentration considered equivalent to 1 unit of 890A1 per ml” value in data set [3] was 12.5 mcg per ml.

As to `CC(OS(=O)(=O)O)C1C(=O)N2C(C(=O)O)=C(SCCN)CC12` (centres unmarked) [desacetyl 890A10], the “bioactive spot on Staphylococcus aureus plate” value in data set [1] is recorded as “bioactive”. Moreover, in data set [4], the antibacterial activity result was “active against various gram-positive and gram-negative bacteria”.
